Experimental data as given in US7897371B2, “Activation of mutated RAC-PK” (Novartis AG, priority 1995, dated 2011).
Where two headings read alike, the source gives them in different places.

Columns and labels:
mixed isoforms of PKC = test: Protein kinase inhibition assay, mixed isoforms of PKC (histone H1 substrate); format: biochemical
Procedure: (§1) After incubation on ice for 10 minutes, the reaction was started by the addition of 10µL of 50 mM magnesium acetate and 0.5 mM [.gamma^32P]ATP (100-200 cpm/pmol). For the assay of mixed isoforms of PKC 20µM diacylglycerol, 0.5 mM CaCl.sub2 and 100µM phosphatidylsene were also present in the incubations. The assays were carried out for 15 minutes at 30° C., then terminated and analyzed as described. See Alessi et al., Methods Enzymol, Vol. 255, pp. 279-290 (1995). One unit of activity was that amount of enzyme that catalyzed the phosphorylation of 1 nmol os substrate in 1 minute. The final concentration of DMSO in each assay was 1% (by vol). […] Mixed isoforms of PKC were assayed using histone H1 as substrate, while MAPKAP-K11 and p70 S6 kinase were assayed using the peptide […] (SEQ ID NO: 14). See Leighton et al. (1995), supra. PK B was assayed with the peptide […] [9] (SEQ ID NO: 5) and MAPKAP-K2 was assayed with the peptide […] (SEQ ID NO: 27). See Stokoe, Caudwell, Cohen and Cohen, Biochem J, Vol. 296, Pt. 3, pp. 843-849 (1993). p42 MAP kinase was assayed using MBP, and MAPKK-1 and c-Raf1 were assayed as described in Alessi et al., Methods Enzymol (1995), supra.

PK B = PK B (Homo sapiens, UniProt P31749); test: Protein kinase inhibition assay, PK B (peptide […] substrate); format: biochemical
PK B, sequence (P31749 whole entry): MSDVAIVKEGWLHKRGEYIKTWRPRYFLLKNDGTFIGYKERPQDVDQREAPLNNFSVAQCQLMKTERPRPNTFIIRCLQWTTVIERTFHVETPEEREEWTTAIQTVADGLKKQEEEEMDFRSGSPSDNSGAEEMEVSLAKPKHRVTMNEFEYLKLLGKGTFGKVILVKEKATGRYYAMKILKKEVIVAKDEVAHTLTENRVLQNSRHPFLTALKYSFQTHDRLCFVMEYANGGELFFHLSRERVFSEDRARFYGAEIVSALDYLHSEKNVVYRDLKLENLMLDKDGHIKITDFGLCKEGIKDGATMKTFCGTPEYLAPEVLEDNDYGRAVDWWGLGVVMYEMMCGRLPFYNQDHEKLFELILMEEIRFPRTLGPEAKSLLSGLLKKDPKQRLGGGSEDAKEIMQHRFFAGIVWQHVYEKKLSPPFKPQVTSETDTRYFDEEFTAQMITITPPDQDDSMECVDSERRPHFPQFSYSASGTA
Procedure: as §1

MAPKAP-K1β = molecular target: T1, MAPKAP-K1β (Oryctolagus cuniculus, UniProt A0A5F9C4L9); test: Protein kinase inhibition assay, MAPKAP-K1β (peptide […] substrate); format: biochemical, rabbit
T1 construct: from tissue; host or cells: rabbit skeletal muscle
T1 sequence (A0A5F9C4L9 1-740): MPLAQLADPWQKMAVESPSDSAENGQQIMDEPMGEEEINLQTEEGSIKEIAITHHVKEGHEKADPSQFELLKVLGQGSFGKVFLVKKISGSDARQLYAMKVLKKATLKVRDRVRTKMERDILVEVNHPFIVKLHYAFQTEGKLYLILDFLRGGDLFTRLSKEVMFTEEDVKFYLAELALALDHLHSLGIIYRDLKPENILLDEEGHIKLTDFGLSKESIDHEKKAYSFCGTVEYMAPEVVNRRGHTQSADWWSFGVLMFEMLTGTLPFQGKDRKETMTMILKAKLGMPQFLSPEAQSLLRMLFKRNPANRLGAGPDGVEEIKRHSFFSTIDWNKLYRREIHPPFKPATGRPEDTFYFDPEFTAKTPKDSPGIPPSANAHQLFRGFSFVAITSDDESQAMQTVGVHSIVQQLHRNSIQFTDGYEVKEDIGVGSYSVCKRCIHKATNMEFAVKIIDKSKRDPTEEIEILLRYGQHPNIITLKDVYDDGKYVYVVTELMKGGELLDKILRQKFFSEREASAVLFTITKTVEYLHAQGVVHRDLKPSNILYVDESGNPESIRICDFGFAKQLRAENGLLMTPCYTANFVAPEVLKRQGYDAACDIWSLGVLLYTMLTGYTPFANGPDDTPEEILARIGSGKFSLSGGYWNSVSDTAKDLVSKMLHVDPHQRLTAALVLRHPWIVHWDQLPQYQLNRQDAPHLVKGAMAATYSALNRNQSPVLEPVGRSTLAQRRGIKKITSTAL

p70 S6 kinase = molecular target: T2, p70 S6 kinase (Rattus norvegicus, UniProt P67999); test: Protein kinase inhibition assay, p70 S6 kinase (peptide […] substrate); format: biochemical
T2 construct: from tissue; host or cells: rat liver
T2 sequence (P67999 24-525): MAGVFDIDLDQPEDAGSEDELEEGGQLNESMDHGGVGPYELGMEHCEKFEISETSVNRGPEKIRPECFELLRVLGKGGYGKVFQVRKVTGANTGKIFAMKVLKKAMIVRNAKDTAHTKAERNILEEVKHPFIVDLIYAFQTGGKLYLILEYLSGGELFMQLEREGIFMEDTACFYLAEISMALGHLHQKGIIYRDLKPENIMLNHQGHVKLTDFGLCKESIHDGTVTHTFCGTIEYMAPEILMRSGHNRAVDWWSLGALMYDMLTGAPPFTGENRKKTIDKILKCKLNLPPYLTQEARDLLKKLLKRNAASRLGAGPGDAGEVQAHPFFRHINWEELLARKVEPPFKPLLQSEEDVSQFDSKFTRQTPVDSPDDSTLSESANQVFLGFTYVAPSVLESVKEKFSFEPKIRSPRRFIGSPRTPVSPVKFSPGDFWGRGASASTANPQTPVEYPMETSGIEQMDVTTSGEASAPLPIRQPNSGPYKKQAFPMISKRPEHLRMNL

c-Raf1 = c-Raf1 (Homo sapiens, UniProt P04049); test: Protein kinase inhibition assay, c-Raf1; format: biochemical
c-Raf1, sequence (P04049 whole entry): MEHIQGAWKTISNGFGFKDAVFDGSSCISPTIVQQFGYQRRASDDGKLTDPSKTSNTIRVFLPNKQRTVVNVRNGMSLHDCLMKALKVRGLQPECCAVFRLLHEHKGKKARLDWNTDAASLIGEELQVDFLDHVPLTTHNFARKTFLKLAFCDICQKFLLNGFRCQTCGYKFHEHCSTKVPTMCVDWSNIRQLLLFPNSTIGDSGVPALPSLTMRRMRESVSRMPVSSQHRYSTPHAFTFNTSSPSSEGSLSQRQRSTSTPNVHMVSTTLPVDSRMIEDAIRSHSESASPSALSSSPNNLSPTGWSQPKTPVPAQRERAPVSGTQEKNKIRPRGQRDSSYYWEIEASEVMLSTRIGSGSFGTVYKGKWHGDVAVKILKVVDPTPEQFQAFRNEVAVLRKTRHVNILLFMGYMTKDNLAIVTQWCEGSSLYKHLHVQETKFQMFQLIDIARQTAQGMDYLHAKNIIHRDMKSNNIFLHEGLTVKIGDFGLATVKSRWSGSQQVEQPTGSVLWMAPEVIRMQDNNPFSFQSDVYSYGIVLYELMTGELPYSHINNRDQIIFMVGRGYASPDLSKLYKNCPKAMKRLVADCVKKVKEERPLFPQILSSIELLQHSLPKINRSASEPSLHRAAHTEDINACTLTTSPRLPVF
Procedure: as §1

MAPKK-1 = MAPKK-1 (Homo sapiens, UniProt Q02750); test: Protein kinase inhibition assay, MAPKK-1; format: biochemical
MAPKK-1, sequence (Q02750 whole entry, species assumed): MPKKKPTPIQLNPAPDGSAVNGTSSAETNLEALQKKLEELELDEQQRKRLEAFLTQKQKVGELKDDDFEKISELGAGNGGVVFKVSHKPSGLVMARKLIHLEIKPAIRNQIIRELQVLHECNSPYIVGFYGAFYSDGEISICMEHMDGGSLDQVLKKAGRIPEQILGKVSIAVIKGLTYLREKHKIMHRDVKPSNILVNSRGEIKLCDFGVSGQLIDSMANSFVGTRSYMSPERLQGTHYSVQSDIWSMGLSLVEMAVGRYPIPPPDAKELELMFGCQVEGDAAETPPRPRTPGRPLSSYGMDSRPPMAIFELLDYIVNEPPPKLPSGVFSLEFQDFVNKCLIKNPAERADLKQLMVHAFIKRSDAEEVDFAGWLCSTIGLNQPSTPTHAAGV
Procedure: as §1

p42 MAP kinase = p42 MAP kinase (Homo sapiens, UniProt P28482); test: Protein kinase inhibition assay, p42 MAP kinase (MBP substrate); format: biochemical
p42 MAP kinase, sequence (P28482 whole entry): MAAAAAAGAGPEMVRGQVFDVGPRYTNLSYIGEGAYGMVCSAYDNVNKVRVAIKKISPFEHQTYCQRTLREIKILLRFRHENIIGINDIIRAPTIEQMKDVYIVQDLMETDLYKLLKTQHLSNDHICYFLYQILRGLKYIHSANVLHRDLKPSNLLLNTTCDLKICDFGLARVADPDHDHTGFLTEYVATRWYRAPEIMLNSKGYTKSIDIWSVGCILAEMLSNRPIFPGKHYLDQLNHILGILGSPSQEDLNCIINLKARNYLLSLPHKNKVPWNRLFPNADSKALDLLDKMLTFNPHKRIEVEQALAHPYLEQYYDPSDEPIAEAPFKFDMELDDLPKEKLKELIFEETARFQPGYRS
Procedure: as §1

MAPKAP-K2 = molecular target: T3, MAPKAP-K2 (Homo sapiens, UniProt P49137); test: Protein kinase inhibition assay, MAPKAP-K2 (peptide […] substrate); format: biochemical
T3 construct: cDNA encoding residues 46-400 of human MAPKAP kinase-2 was expressed in E. coli as a GST fusion protein; GST; made in house; host or cells: E. coli
T3 sequence (P49137 46-400): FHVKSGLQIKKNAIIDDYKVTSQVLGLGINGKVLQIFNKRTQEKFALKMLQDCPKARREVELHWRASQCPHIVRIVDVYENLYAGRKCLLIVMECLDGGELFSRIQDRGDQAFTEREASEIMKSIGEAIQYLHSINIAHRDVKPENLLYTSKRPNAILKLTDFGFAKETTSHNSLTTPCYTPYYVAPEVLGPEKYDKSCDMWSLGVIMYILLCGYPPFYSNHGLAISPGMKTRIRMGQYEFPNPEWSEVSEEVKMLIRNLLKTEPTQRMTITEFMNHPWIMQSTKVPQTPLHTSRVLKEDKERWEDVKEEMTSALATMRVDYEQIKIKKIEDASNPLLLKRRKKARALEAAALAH
Procedure: as §1

RAC-PKα [1] = molecular target: T4, RAC-PKα (Homo sapiens, UniProt P31749, T308A); format: biochemical; settings: COS-1 cells
T4 construct: made in house; host or cells: COS-1 cells (DEAE-dextran transfection, serum-starved), immunoprecipitated with 12CA5 antibody
T4 sequence (P31749 whole entry T308A): as the sequence (P31749 whole entry) above, with T308A counted along it

RAC-PKα [2] = format: cell-based, human
MAPKAP kinase-2 = format: cell-based
GSK3 = format: cell-based
MAPKAP kinase-1 = MAPKAP kinase-1 activation by insulin in L6 myotubes; format: cell-based
Source text: (d)—As (c) except that MAPKAP kinase-1 was immunoprecipitated from the lysates and assayed with S6 peptide (filled circles).

RAC-PKα [3] = tested on: RAC-PKα
RAC-PKα [4] = format: biochemical, human; settings: expressed in COS-1 cells, without MAPKAP kinase-2
GSK3β = format: cell-based, human
GSK3β, sequence (P49841 whole entry): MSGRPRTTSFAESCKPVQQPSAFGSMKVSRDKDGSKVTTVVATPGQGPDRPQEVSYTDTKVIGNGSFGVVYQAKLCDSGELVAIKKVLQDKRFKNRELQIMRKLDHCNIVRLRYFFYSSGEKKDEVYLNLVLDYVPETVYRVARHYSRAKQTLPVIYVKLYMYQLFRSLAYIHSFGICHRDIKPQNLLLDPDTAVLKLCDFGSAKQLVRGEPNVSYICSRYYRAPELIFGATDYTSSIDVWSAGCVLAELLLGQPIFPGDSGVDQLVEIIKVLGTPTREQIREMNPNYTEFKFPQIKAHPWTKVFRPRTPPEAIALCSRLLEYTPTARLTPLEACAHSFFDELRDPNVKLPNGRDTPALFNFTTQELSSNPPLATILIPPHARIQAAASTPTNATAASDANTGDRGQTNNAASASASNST

RAC-PKα [5] = settings: 293 cells
p70s6k-Myc = test: Transient cotransfection of RAC-PKα with p70s6k-Myc; format: cell-based; settings: coexpression
Procedure: To examine this possibility, the regulation of p70^[…] is investigated in a transient cotransfection assay using human 293 cells. RAC-PKα constructs are prepared by ligating the RAC-PKα cDNA [see Jones et al. (1991), supra] in-frame to the initiator methionine, in the mammalian expression vector pECE. The construct is also subcloned into a CMV promoter-driven expression vector. The construct is confirmed by restriction analysis and sequencing. Constructs expressing Myc-tagged p70^[…] are obtained from Dr. G. Thomas, […] Institut, Basel, Switzerland. Constructs are transfected into COS cells using standard procedures.

Cn1cc(C2=C(c3cn(CCCSC(=N)N)c4ccccc34)C(=O)NC2=O)c2ccccc21 [Ro 318220]
IC50 (mixed isoforms of PKC): 5 nM
IC50 (PK B): 1000 nM
IC50 (MAPKAP-K1β; read-out: IC50, MAPKAP-K1β): 3 nM
IC50 (p70 S6 kinase): 15 nM
Inhibition of c-Raf1 in vitro (c-Raf1): not inhibited significantly
Inhibition of MAPKK-1 in vitro (MAPKK-1): not inhibited significantly
Inhibition of p42 MAP kinase in vitro (p42 MAP kinase): not inhibited significantly
Inhibition of MAPKAP-K2 in vitro (MAPKAP-K2): not inhibited significantly

HA-308A RAC-PKα: HA-tagged RAC-PKα with Thr308 changed to Ala
Activity as percentage of unstimulated WT enzyme (RAC-PKα [1]): about 40%

C[S+]([O-])c1ccc(-c2nc(-c3ccncc3)c(-c3ccc(F)cc3)[nH]2)cc1 (stereo not drawn) [SB 203580]
Effect on activation of RAC-PKα by insulin or IGF-1 (RAC-PKα [2]): had no effect
Effect on activation of MAPKAP kinase-2 (MAPKAP kinase-2): prevented

COc1cccc(-c2cc(=O)c3ccccc3o2)c1N [PD 98059]
Effect on inhibition of GSK3 by insulin (GSK3): unaffected
Effect on activation of MAPKAP kinase-1 (MAPKAP kinase-1): prevented
Effect on insulin activation of RAC-PK (RAC-PKα [3]): essentially unaffected

HA-308D/473D RAC-PK: RAC-PKα with both Thr308 and Ser473 mutated to Asp, constitutively active
Activity relative to unstimulated (dephosphorylated) WT HA-RAC-PKα (RAC-PKα [4]): 18 fold
Increase in GSK3 activity on PP2A treatment (GSK3β): 85%
Activity relative to WT HA-RAC-PKα in unstimulated cells (RAC-PKα [5]): 40 fold

CN(C)CCCn1cc(C2=C(c3c[nH]c4ccccc34)C(=O)NC2=O)c2ccccc21 [GF 109203X]
IC50 (mixed isoforms of PKC): 30 nM
Inhibition of PK B in vitro (PK B): without inhibiting
IC50 (MAPKAP-K1β; read-out: IC50, MAPKAP-K1 B): 50 nM
IC50 (p70 S6 kinase): 100 nM
Inhibition of c-Raf1 in vitro (c-Raf1): without inhibiting
Inhibition of MAPKK-1 in vitro (MAPKK-1): without inhibiting
Inhibition of p42 MAP kinase in vitro (p42 MAP kinase): without inhibiting

B1: RAC-PKα: human RAC protein kinase α, wild type, SEQ ID NO. 3 (protein)
chain: MNDVAIVKEGWLHKRGEYIKTWRPRYFLLKNDGTFIGYKERPQDVEQRESPLNNFSVAQCQLMKTERPRPNTFIIRCLQWTTVIERTFHVETPEEREEWTTAIQTVADGLKRQEEETMDFRSGSPSDNSGAEEMEVALAKPKHRVTMNEFEYLKLLGKGTFGKVILVKEKATGRYYAMKILKKEVIVAKDEVAHTLTENRVLQNSRHPFLTALKYSFQTHDRLCFVMEYANGGELFFHLSRERVFSEDRARFYGAEIVSALDYLHSEKNVVYRDLKLENLMLDKDGHIKITDFGLCKEGIKDGATMKTFCGTPEYLAPEVLEDNDYGRAVDWWGLGVVMYEMMCGRLPFYNQDHEKLFELILMEEIRFPRTLGPEAKSLLSGLLKKDPTQRLGGGSEDAKEIMQHRFFANIVWQDVYEKKLSPPFKPQVTSETDTRYFDEEFTAQMITITPPDQDDSMECVDSERRPHFPQFSYSASGTA
Increase of basal p70s6k-Myc activity (p70s6k-Myc): 3.5 fold
Increase of insulin-stimulated p70s6k-Myc activity (p70s6k-Myc): 3 fold
Increase in GSK3 activity on PP2A treatment (GSK3β): 68%
